Laboratory results: US8242166B2, “C(10) ethyl ester and C(10) cyclopropyl ester substituted taxanes” (Florida State University Research Foundation, Inc., priority 2008, dated 2012)
“And” between values parts separate entries of the source, which are not always exact repeats. Identical values can stand only once. Like-named read-outs stand apart in the source and are kept apart here.

Assays:
[1] = test system: human MX-1 breast carcinoma; test: MX1 xenograft study e219R1, i.v. single dose (Example 17)
PANC-1 = test: MTT cytotoxicity (IC50), PANC-1; type: cell-based; details: Homo sapiens, 72 h, read-out: IN Vitro IC50 (nm) Panc
Description: (§1) Compound 17932 was tested in four of these cell lines, while the remaining compounds were tested in all of these cell lines. All cell lines were maintained in RPMI-1640 tissue culture medium (TCM, supplemented with antibiotics and 10% fetal bovine serum) and cultured at 37° C. in humidified air containing 5% CO2. To assess the antiproliferative effects of the test compounds, 172 μL of tumor cell suspension (1.45×10^4 cells/ml) were added to each well of a 96-well plate and incubated for 24 h at 37° C. in 5% CO2 in air to allow cells to adhere. Seven 2-fold drug dilutions in TCM/DMSO were performed in triplicate in separate 96-well plates and 28 μL was transferred to the wells containing tumor cells (200 μL final volume/0.1% DMSO). Plates were incubated for 72 h and cell viability was determined by adding 50 μL of warm TCM containing 5 mg/mL MTT (3-[4,5-dimethylthiazol-2-yl]-2,5-diphenyltetrazolium bromide) to each well and incubating for 1 h at 37° C. Plates were processed and the absorbances of the resulting solutions were measured by a plate reader at 570 nm. […] (GraphPad Prism version 4.00 for Windows). Studies were conducted by Taxolog, Inc., Tallahassee, Fla.

SK-MEL-28 = test: MTT cytotoxicity (IC50), SK-MEL-28; type: cell-based; details: Homo sapiens, 72 h, read-out: IN Vitro IC50 (nm) ske-mel28
Description: as §1

HOP-18 = test: MTT cytotoxicity (IC50), HOP-18; type: cell-based; details: Homo sapiens, 72 h, read-out: IN Vitro IC50 (nm) HOP18
Description: as §1

786-0 = test: MTT cytotoxicity (IC50), 786-0; type: cell-based; details: Homo sapiens
Description: as §1

[2] = test system: HT29 human tumor xenografts; test: HT29 xenograft study e212, oral and i.v. (Example 26); details: 25 mg/kg iv qwk × 3
From the text: (§2) The formulation for oral studies was an ethanol and Cremophor formulation while the formulation for compound 18365 and compound 19244 dosed i.v. was 5% ethanol and 95% Liposyn II 20%.

[3] = test system: human A375 melanoma xenograft; test: A375 xenograft study e209 (Example 27); details: 25 mg/kg iv qwk × 3
Description: The endpoint was a tumor volume of 2,000 mm^3 and the study was terminated on Day 56. Efficacy was assessed by tumor growth delay and the number of partial and complete regressions. Animals with a CR that persisted through Day 56 were classified as long-term tumor-free survivors (TFS).

HCT116 = test: MTT cytotoxicity (IC50), HCT116; type: cell-based; details: Homo sapiens, HCT-116, 72 h, read-out: IN Vitro IC50 (nm) HCT116
Description: as §1, with “All” for “Compound 17932 was tested in four of these cell lines, while the remaining compounds were tested in all of these cell lines. All”

[4] = test system: HT29 human tumor xenografts; test: HT29 xenograft study e210, oral and i.v. (Example 25); details: 25 mg/kg iv qwk × 3
From the text: as §2

[5] = test system: HT29 human tumor xenografts; test: HT29 xenograft study e139 (Example 23); type: in vivo, nude mice
TK-10 = test: MTT cytotoxicity (IC50), TK-10; type: cell-based; details: Homo sapiens, 72 h, read-out: IN Vitro IC50 (nm) TK10
Description: as §1

A549 = test: MTT cytotoxicity (IC50), A549; type: cell-based; details: Homo sapiens, 72 h, read-out: IN Vitro IC50 (nm) A549
Description: as §1

Structure (SMILES): CC(=O)O[C@@]12CO[C@@H]1C[C@H](O)[C@@]1(C)C(=O)[C@H](O)C3=C(C)[C@@H](OC(=O)[C@H](O)[C@@H](NC(=O)OC(C)(C)C)c4ccccc4)C[C@@](O)([C@@H](OC(=O)c4ccccc4)[C@H]21)C3(C)C [Docetaxel, docetaxel, reference compound]
- % TGD ([1]; 25 mg/kg iv qd × 1): 89.79%
- BW Nadir ([1]; 25 mg/kg iv qd × 1): −10.2% (5)
- MTV (n), Day 60 ([1]; 25 mg/kg iv qd × 1): 0.00 (5) mm^3
- Median TTE ([1]; 25 mg/kg iv qd × 1): 61 days
- T-C ([1]; 25 mg/kg iv qd × 1): 28.86 days
- CR (complete regression) ([1]; 25 mg/kg iv qd × 1, n=5): 5
- NTR (non-treatment-related death) ([1]; 25 mg/kg iv qd × 1, n=5): 0
- PR (partial regression) ([1]; 25 mg/kg iv qd × 1, n=5): 0
- TFS (tumor-free survivor) ([1]; 25 mg/kg iv qd × 1, n=5): 4
- TR (treatment-related death) ([1]; 25 mg/kg iv qd × 1, n=5): 0
- group mean weight loss ([1]; 25 mg/kg qd×1): 10.2%
- transient CR ([1]; 25 mg/kg qd×1, n=5): 1
- IC50 (PANC-1): 1.9 nM
- IC50 (SK-MEL-28): 2.1 nM
- IC50 (HOP-18): 3.4 nM
- IC50 (786-0; MTT, 72 h, read-out: IN Vitro IC50 (nm) 786-0): 6.2 nM
- IC50 (786-0; Resistance MDR1+, read-out: 786-0 Renal (Table 4, quantity not named; IC50 values as Table 2)): 6.2 nM
- CR (complete regression) ([2]; n=6): 0
- NTR NTRm ([2]; n=6): 0
- PR (partial regression) ([2]; n=6): 3
- TFS (tumor-free survivor) ([2]; n=6): 0
- TR (treatment-related death) ([2]; n=6): 0
- % TGD ([2]; vehicle ET): 237.14%
- MTV (n), Day 59 ([2]; vehicle ET): 600.00 (6) mm^3
- Median TTE ([2]; vehicle ET): 59 days
- T-C ([2]; vehicle ET): 41.5 days
- BW Nadir [3]: −4.0% (25)
- CR (complete regression) ([3]; n=6): 0
- NTR NTRm ([3]; n=6): 0
- PR (partial regression) ([3]; n=6): 0
- TFS (tumor-free survivor) ([3]; n=6): 0
- TR (treatment-related death) ([3]; n=6): 0
- % TGD ([3]; vehicle ET): 49.06%
- Median TTE ([3]; vehicle ET): 26.92 days
- T-C (tumor growth delay) ([3]; vehicle ET, listed as 2): 8.9 days and 8.86 days
- IC50 (HCT116): 0.9 nM
- % TGD [4]: 214.3%
- MTV (n), Day 60 [4]: 40.00 (6) mm^3
- Median TTE [4]: 60 days
- T-C [4]: 40.91 days
- CR (complete regression) ([4]; n=6): 4
- NTR NTRm ([4]; n=6): 0
- PR (partial regression) ([4]; n=6): 2
- TFS (tumor-free survivor) ([4]; n=6): 2
- TR (treatment-related death) ([4]; n=6): 0
- Day 54 mm^3 (tumor size) ([5]; 25 mg/kg iv q7d × 3): 180.6 mm^3
- Max. BW Loss %; Day ([5]; 25 mg/kg iv q7d × 3): −14.4%; Day 19
- Number of Death NTR ([5]; 25 mg/kg iv q7d × 3, N=6): 0
- Number of Death TR ([5]; 25 mg/kg iv q7d × 3, N=6): 0
- TGD ([5]; 25 mg/kg q7d×3): 210%
- group mean body-weight (BW) loss ([5]; 25 mg/kg q7d×3): 14.4%
- MTV (Day 61) ([5]; 25 mg/kg q7d×3, five mice): 196 mm^3
- LTTFS ([5]; 25 mg/kg q7d×3, six mice): 1
- PR responses ([5]; 25 mg/kg q7d×3, six mice): 5
- IC50 (TK-10): 1.4 nM
- IC50 (A549): 1.3 nM
